Measured values reported in PubChem BioAssay (NCI).
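A five-concentration, 48-hour dose response in 96-well plates underlies each endpoint, interpolated linearly between surrounding concentrations. TGI denotes the concentration required for complete inhibition of growth.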

Assays:
Test in all cases: NCI tumour cell line growth inhibition, 48 h
[1] = system: KM12 colon
[2] = system: HCT-15 colon
[3] = system: K-562 leukemia
[4] = system: HT29 colon
[5] = system: DMS 114 small cell lung

Row | SMILES | TGI [1] [µM] | TGI [2] [µM] | TGI [3] [µM] | TGI [4] [µM] | TGI [5] [µM]
1 | CC(C)(C)c1cc(C(=O)/C=C/C=C/c2ccccc2)cc(C(C)(C)C)c1O | > 92.7 | > 67.1 | > 100 | > 89.9 | 
2 | Cc1ccc(-c2cc(-c3ccc(Cl)cc3)nc(/N=C3\C(=O)N(CN4CCOCC4)c4ccc(Cl)cc43)n2)cc1 | 56.8 | > 100 | 90.9 | 43.6 | 
3 | COc1ccc(-c2c(C#N)c(O)n(NS(=O)(=O)c3ccc(C)cc3)c(=O)c2C#N)cc1 | > 100 | > 100 |  | > 100 | 
4 | CCOC(=O)c1ccc(NC(=O)O/N=C(/Cl)CCl)cc1 | > 100 | > 100 | > 100 | > 100 | 
5 | CC(=O)Nc1ccc2cc(C)c(=O)[nH]c2n1 | > 100 | > 100 | > 100 | > 100 | 
6 | N#CC1(C#N)C2CCCCC23OC(=N)C1(C#N)C(c1ccccc1)O3 (configuration not stated) | 25.8 | 28.6 | > 100 | 60.2 | 
7 | O=C(/C=C/C=C/c1ccccc1)c1ccc2c(c1)CCCC2 | > 100 | > 100 | > 100 | > 100 | 
8 | O=C(NC(CO)Cc1ccc(Oc2cc(CC(CO)NC(=O)OCc3ccccc3)ccc2OC(=O)OCc2ccccc2)cc1)OCc1ccccc1 (configuration not stated) | 50.4 | > 100 | 46.7 | > 100 | 
9 | C[C@H]1C2Cc3cc(N)ccc3[C@@]1(C)CCN2CCc1ccccc1 | > 100 | > 100 | > 100 | > 100 | 
10 | O=C1/C(=C/c2ccccc2)NC(=S)N1CN1CCOCC1 | > 100 | > 100 | > 100 | > 100 | 
11 | CC1C[C@]2(C)C(=O)Nc3ccccc3[C@@H]2Nc2ccccc21 (some centres not stated) | 39.1 | > 100 | > 100 | 30 | 
12 | CC1(C)OC2C(O)CN3CCS[C@H]3C2O1 (some centres not stated) | > 100 | > 100 | > 100 | > 100 | 
13 | C[C@@H]1C[C@](O)([C@@H](C)Cl)C(=O)O[C@@H]2CCN3CC=C(COC(=O)[C@]1(C)O)[C@H]23 | > 100 | > 100 | > 100 | > 100 | 
14 | CSc1nncc2[nH]c(C)nc12 | > 100 | > 100 | > 100 | > 100 | 
15 | NCCCNCCCCNCCCN | > 100 | 7.63 | > 21.2 | 76.5 | 
16 | Cn1c(N)c2c3c(sc2nc1=O)CCCC3 | > 75 | > 75 | > 75 | > 75 | 
17 | CC(/C=N\NC(=S)N1CCCCC1)=N/NC(=S)N1CCCCC1 | 13.7 | 19.5 | > 100 | 62.4 | 
18 | Cn1c(=O)c2c(no[n+]2[O-])c2ccccc21 | 25.2 | 29.5 | > 100 | 37.2 | 
19 | Cc1cc(OCc2nnc3n2N=C(c2cc(F)c(Cl)cc2Cl)/C(=C/c2ccc(Cl)cc2)S3)ccc1Cl | 60.2 | 63.4 | 56.2 | 52.5 | 
20 | S=c1[nH]n2c(COc3cccc(OCc4nnc5sc(=S)[nH]n45)c3)nnc2s1 | > 100 | > 100 | > 100 | > 100 | 
21 | O=C(O)CCN(CCC(=O)O)c1ccc(/C=C2\SC(=S)NC2=O)cc1 | > 100 | > 100 | > 100 | > 100 | 
22 | Cc1c(O)c(C)c2c(C)cn(C(=O)C(C)(C)C)c2c1C | 27.2 | 40.6 | 98.2 | 42.6 | 
23 | CC(C)(C)[Si](C)(C)OC1/C(=C/C#N)C(n2ccc(=O)[nH]c2=O)OC1CO (configuration not stated) | > 100 |  | > 100 | > 100 | 
24 | O=C(NS(=O)(=O)OCC(Cl)(Cl)Cl)SCCC(F)(F)C(F)(F)C(F)(F)C(F)(F)C(F)(F)C(F)(F)F | 43.5 | 47.4 | > 100 | 35.6 | 
25 | Cc1ccsc1/C=N/Nc1ccc2ccccc2n1 | > 100 | > 100 | > 100 | > 100 | 

Row | SMILES | TGI [1] [µM] | TGI [2] [µM] | TGI [3] [µM] | TGI [4] [µM] | TGI [5] [µM]
26 | N#C/C(N)=C(\C#N)NC=NCc1ccccc1 | > 100 | > 100 | > 100 | > 100 | 
27 | COc1ccc(C(=O)/C=C/c2ccncc2)cc1OC |  | 28.7 | 6.11 | 21.7 | 
28 | COc1ccc(N2C(=O)CS(=O)(=O)C2c2cccc(Oc3ccccc3)c2)cc1 (configuration not stated) | > 100 | 55.2 | 8.44 | 50.9 | 
29 | O=S(=O)(O)c1ccc(N=Nc2ccc(N=Nc3c(O)ccc4ccccc34)cc2)cc1 | > 100 | > 100 | > 100 | > 100 | 
30 | CCOP(=O)(O)C(C)(C)NC | > 100 | > 100 | > 100 | > 100 | 
31 | COc1ccc(C(OCC2OC(n3cc(C)c(=O)[nH]c3=O)CC2n2cc(Cn3cc(Br)c(=O)[nH]c3=O)nn2)(c2ccccc2)c2ccccc2)cc1 (configuration not stated) | > 100 | > 100 |  | > 100 | 
32 | Nc1nc2c(ncn2Cc2ccc(CO)cc2)c(=O)[nH]1 | > 100 | > 100 | > 100 | > 100 | 
33 | C[C@@H]1CCC2[C@@H](C)[C@@H](OCCO[C@H]3OC4O[C@@]5(C)CCC6[C@H](C)CCC([C@H]3C)[C@@]46OO5)OC3O[C@@]4(C)CCC1[C@]32OO4 (some centres not stated) | > 100 | > 100 |  | > 100 | 
34 | CN1C(=O)C(CC=O)(C(C)(C)C)c2ccccc21 (configuration not stated) | > 100 | > 100 | > 100 |  | 
35 | CC12CC(C#N)(C#N)C(C#N)(CO1)C(=N)O2 (configuration not stated) | > 100 | > 100 | > 100 | > 100 | 
36 | O=[N+]([O-])c1cc2c(c3nonc13)OCCCCO2 | 20.7 | 13.7 | 17.3 | 21.1 | 
37 | COc1ccc(C(OC(C)=O)C2C(=C(C#N)C#N)c3ccccc3C2=C(C#N)C#N)cc1 (configuration not stated) | > 100 | > 100 | > 100 | 95.1 | 
38 | O=C(NCCCN(CCCCN(CCCNC(=O)C(F)(F)F)CCCc1ccccc1)CCCc1ccccc1)C(F)(F)F | 3.65 | 2.98 | > 100 | 3.23 | 
39 | CCOC(=O)C1=C(N)Oc2ccc(Br)cc2C1C(C#N)C(=O)OCC (configuration not stated) | 62.7 | 40.9 | > 100 |  | 
40 | CCCCn1c(C)c2c(c1C)C(=O)N(CC(O)CN1CCc3ccccc3C1)C2=O (configuration not stated) | > 100 | > 100 | > 100 | > 100 | 
41 | CCOC(=O)c1cc(C2(O)CCN(CC(C)CC)C2=O)c(-c2cc(C)no2)[nH]1 (configuration not stated) | > 100 | > 100 | > 100 | > 100 | 
42 | CC(C)C1=C(Cc2ccccc2)C(=O)O/C1=C\c1cc(Cl)c(O)c(Cl)c1 | 35.1 | 39.7 | 40.5 | 32.2 | 
43 | COc1ccc(OC)c(N2C(=O)CSC2c2cc(OC)c(OC)c(OC)c2)c1 (configuration not stated) | > 100 | > 100 | > 100 | > 100 | 
44 | O=C(CCc1cc(O)cc(O)c1)NCCc1cc(O)cc(O)c1 | > 100 | > 100 | > 100 | > 100 | 
45 | CN1CCN(CN2C(=O)C3C4C=CC(C3C2=O)C2C(=O)N(CN3CCN(C)CC3)C(=O)C42)CC1 (configuration not stated) | > 100 | > 100 | > 100 | 49.3 | 
46 | Cc1ccc(-c2c3c(n(C4OC(CO)C(O)C(O)C4O)c(=S)c2C#N)CC(C)(C)CC3=O)cc1 (configuration not stated) | > 100 | > 100 | > 100 | > 100 | 
47 | CCOC(=O)c1ccc(C(=O)/C(C#N)=C2\CCCN2C)[nH]1 | > 100 | > 100 | > 100 | > 100 | 
48 | CC(NNC(=O)CC(=O)N(C(=O)c1ccccc1)c1ccc(Cl)cc1)c1cc2ccccc2oc1=O (configuration not stated) | > 10 | > 10 | > 10 | > 10 | 
49 | CCCCCC(/C=C/C1CCC(=O)C1CC#C[Si](C)(C)C)OCc1ccccc1 (configuration not stated) | 33 | 30.1 | 41.8 | 31.1 | 
50 | CN(CCN(C)C(=S)NN)C(=S)NN | > 100 |  |  | > 100 | 

Row | SMILES | TGI [1] [µM] | TGI [2] [µM] | TGI [3] [µM] | TGI [4] [µM] | TGI [5] [µM]
51 | CC(CCC#N)(CCC#N)C(=O)CC(O)(C(F)(F)F)C(F)(F)F | 34.2 | 10.6 | 5.87 | 28.7 | 
52 | O=P(O)(Cc1ccccc1)c1ccccc1-c1ccccc1 | > 100 | > 100 | > 100 | > 100 | 
53 | COc1ccc(CN(Cc2ccc(OC)cc2)C(=O)CC2(O)C=CCC2)cc1 (configuration not stated) | > 100 | > 100 | > 100 | > 100 | 
54 | CC[C@]1(Cc2ccc(OC)c(OC)c2)[C@@H]2C[C@@H](C3OCCO3)ON2O[C@H](OC2CCCC2(c2ccccc2)c2ccccc2)[C@@H]1OC(C)=O (some centres not stated) | 29.5 | 30.3 | 39.1 | 42.4 | 
55 | CN(C)/C=N/n1c2ccccc2c2ccccc21 | > 100 | > 100 | > 100 | > 100 | 
56 | COC(=O)c1c(O)ccc2c1c1c(n2Cc2ccc(Cl)cc2Cl)C(=O)c2ccccc2C1 | > 100 | > 100 | > 100 | > 100 | 
57 | CC(C)(C)NC(=O)N1N=C(c2ccccc2)C1c1ccccc1 (configuration not stated) | > 100 | 75.2 |  | 32.2 | 
58 | CCO/C=N/NC(=O)CSc1nc2ccc(I)cc2c(=O)n1Cc1ccccc1 | > 100 | > 100 | > 100 | > 100 | 
59 | COc1ccc(OC)c(C2Cc3cnc4nc(N)nc(N)c4c3C2)c1 (configuration not stated) | 55.7 | > 100 | > 100 | > 100 | 
60 | CC(C)(C)C(=O)OC(N)/C=C/c1ccccc1 (configuration not stated) | > 100 | > 100 |  | > 100 | 
61 | CCOC(=O)NC1CN2CCC1CC2 (configuration not stated) | > 100 | > 100 | > 100 | > 100 | 
62 | CCc1nc2ccc(N=NN(C)C)cc2[nH]1 | > 100 | > 100 | > 100 | > 100 | 
63 | O=[N+]([O-])c1ccc(S(=O)(=O)N=Ic2ccccc2)cc1 | > 100 | > 100 | > 100 | > 100 | 
64 | Cc1c(CNc2ccc(C(=O)NC(CC(=O)O)C(=O)O)cc2)ccc2nc(N)nc(N)c12 (configuration not stated) | > 1000 | > 1000 | > 1000 | > 1000 | > 66.7
65 | O=C1NN=C2C=C(c3ccc(Cl)cc3)CC(c3cccc(Cl)c3)C12 (configuration not stated) | > 100 | 32.8 | 41.8 | 51.4 | 
66 | COc1cc(C2SCC(=O)N2c2ccc(Cl)c(Cl)c2)cc(OC)c1OC (configuration not stated) | 51 | > 100 | > 100 | > 100 | 
67 | Cc1cn(CCCCCOC(=O)NC(CCCN=C(N)N)C(=O)O)c(=O)[nH]c1=O (configuration not stated) | > 100 | > 100 | > 100 | 60.1 | 
68 | CC1(C)OC(=C(C#N)C#N)C(C#N)=C1/C=C/c1ccncc1 | 9.14 | 3.79 | 7.04 | 4.07 | 
69 | O=C(c1cc(Cl)cc(Cl)c1)N1CCN(C(=O)c2cc(Cl)cc(Cl)c2)C1=S | 24.8 | 31 | > 50.8 | 51.9 | 
70 | COc1ccc(CCN=C2OCc3ccccc32)cc1OC | > 100 | > 100 | > 100 | > 100 | 
71 | CC(C)=C1C(=O)C[C@]2(C)C[C@H]3/C(=C(/C)CCC12)CC[C@@]3(C)O (some centres not stated) | > 50 | > 50 | > 50 | > 50 | 
72 | O=c1c2c(-c3ccccc3)onc2n(-c2ccccc2)c(=O)n1-c1ccccc1 | 37 | 39.1 | > 100 | 45.3 | 
73 | O=C(O)c1cccnc1 | > 100 | > 100 | > 100 | > 100 | 
